Measured values as given in patent US7345043B2, “Inhibitors of histone deacetylase” (Miikana Therapeutics, priority 2004, dated 2008).

Columns and labels:
MCF7 cells = test: Whole cell cytotoxicity assay: Sulforhodamine B; assay type: cell-based; settings: Homo sapiens, 48 hours with drug, Sulforhodamine B staining
Experimental: Whole Cell Cytotoxicity Assay:Sulforhodamine B
The following procedure can be found on the Developmental Therapeutics Program NCI/NIH web site at http://dtp.nci.nih.gov/brancehes/btb/ivclsp.html.
1. Human tumor cell lines of HT29, A549 and MCF7 are grown in DMEM containing 10% fetal bovine serum and 2 mM L-glutamine. Cells are plated in a 96 well plate at a density of 5000 cells per well in 100 μL of growth medium and incubated at 37° C., 5% CO2, for 24 hours prior to the addition of experimental compounds.
2. Experimental drugs are solubilized in DMSO for a final concentration of 20 mM immediately prior to use. Drugs are further diluted in growth media for a total of nine drug concentrations and a growth control. At the 24-hour time point, one plate of cells is fixed in situ with TCA as a measurement of the cell population at time zero, or the time of drug addition.
3. The plates are further incubated with drug for an additional 48 hours.
4. The cells are fixed in situ by gently aspirating off the culture media and then adding 50 μL of ice cold 10% TCA per well and incubated at 4° C. for 60 minutes. The plates are washed with tap water five times and allowed to air dry for 5 minute.
5. 50 μl of a 0.4% (w/v) Sulforhodamine B solution in 1% (v/v) acetic acid is added per well and incubated for 30 minutes at room temperature.
6. Following staining, plates are washed five times with 1% acetic acid to remove any unbound dye and then allowed to air dry for 5 minutes.
7. Stain is solubilized with 100 μL of 10 mM Tris pH 10.5 per well and placed on an orbital rotator for 5 minutes.
8. Absorbance is read at 570 nm.

[1] = test system: HDAC (HeLa cell nuclear extract, a mosaic of HDAC enzymes); test: In vitro fluorescent histone deacetylase (HDAC) activity assay; assay type: biochemical; settings: HeLa cell nuclear extract as HDAC source, 50 μM substrate, 10 min at room temperature (in some assays recombinant HDAC8); read-out: IC50 HDAC Inhibition
Experimental: Histone deacetylase (HDAC) activity assays were performed using the HDAC fluorescent activity assay/drug discovery kit (Biomol Research Laboratories, Plymouth Meeting, Pa.) essentially according to the manufacturer's instructions. The included HeLa cell nuclear extract, which contains a mosaic of HDAC enzymes and other nuclear factors, was used as the source of HDAC activity. The final substrate concentration in the assay mixture was 50 μM. The reaction was allowed to proceed for 10 min at room temperature before stopping the reaction. Test compounds were prepared as 20 mM stock solutions in DMSO (Molecular Biology grade, Sigma-Aldrich Co., St. Louis, Mo.) and stored at −70° C. Serial dilutions of test compounds were prepared in assay buffer immediately prior to testing. DMSO was determined in a separate trial to have no significant effect on the activity of this assay at concentrations up to 5%; the final DMSO concentration in the wells was no more than 2% and therefore DMSO effects were safely neglected. Assays were performed in white polystyrene 96-well half-area assay plates (Corning, Corning, N.Y.) and measured on a Wallace 1420 fluorescent plate reader (Wallac Oy, Turku, Finland) with an excitation wavelength of 355 nm, an emission wavelength of 460 nm, and a 1 sec signal averaging time.
In some assays recombinant HDAC8 (Biomol) was used as the source of the enzyme activity; here the final substrate concentration was 250 μM, the final concentration of HDAC8 was 0.02 u/μL and the reaction was allowed to proceed at 37° C. for 1 h before stopping. For all curves, IC50 values were calculated with the GraFit curve-fitting program (Erithacus, Horley, Surrey, UK).

Row | Compound | GI50 (MCF7 cells) [µM] | IC50 [1] [µM]
1 | O=C(NO)c1cnc(NC2CCN(S(=O)(=O)c3ccc4ccccc4c3)CC2)s1 [Example 5f, 2-{[1-(2-naphthylsulfonyl)piperidin-4-yl]amino}-1,3-thiazole-5-carboxylic acid hydroxyamide] | 20 | –
2 | O=C(/C=C/c1cnc(N2CCN(S(=O)(=O)c3ccc(-c4ccccc4)cc3)CC2)s1)NO [Example 4j] | 1.5 | 11.4
3 | O=C(NO)c1cnc(N2CCN(CCc3ccccc3)CC2)s1 [Example 20, 2-(4-phenylethyl-piperazin-1-yl)-thiazole-5-carboxylic acid hydroxyamide] | – | 118
4 | O=C(NO)c1cnc(N2CCC(NS(=O)(=O)c3ccc4ccccc4c3)CC2)s1 [Example 5] | 6 | 0.05
5 | O=C(NO)c1cnc(CN2CCN(S(=O)(=O)c3ccc4ccccc4c3)CC2)s1 [Example 24] | 10 | 6.9
6 | O=C(/C=C/c1cnc(N2CCN(S(=O)(=O)c3ccc4ccccc4c3)CC2)s1)NO [Example 4] | 0.7 | 0.045
7 | O=C(/C=C/c1cnc(N2CCN(S(=O)(=O)c3ccc(OC(F)(F)F)cc3)CC2)s1)NO [Example 4e] | 6 | 3.24
8 | O=C(/C=C/c1cnc(N2CCN(S(=O)(=O)c3cccs3)CC2)s1)NO [Example 4i] | 18 | 0.65
9 | O=C(NO)c1cnc(N2CCN(C(=O)CCc3c[nH]c4ccccc34)CC2)s1 [Example 23b, 2-[4-(3-{1H-indol-3-yl}propanoyl)-piperazin-1-yl]-1,3-thiazole-5-carboxylic acid hydroxyamide] | 30 | 0.87
10 | CC(=O)N1CCN(c2ncc(C(=O)NO)s2)CC1 [Example 21, 2-(4-acetyl-piperazin-1-yl)-thiazole-5-carboxylic acid hydroxamide] | – | 2.75
11 | COc1ccc(S(=O)(=O)N2CCN(c3ncc(/C=C/C(=O)NO)s3)CC2)cc1 [Example 4d] | 1 | 0.4
12 | O=C(/C=C/c1cnc(N2CCN(S(=O)(=O)c3ccc(C(F)(F)F)cc3)CC2)s1)NO [Example 4g] | 3 | 14.5
13 | O=C(NO)c1cnc(N2CCC(CNS(=O)(=O)c3ccc(-c4ccccc4)cc3)CC2)s1 [Example 5e, 2-(4-{[(1,1′-biphenylsulfonyl)amino]methyl}piperidin-1-yl)-1,3-thiazole-5-carboxylic acid hydroxyamide] | 2 | –
14 | Cc1ccc(S(=O)(=O)NC2CCN(c3ncc(C(=O)NO)s3)CC2)cc1 [Example 5d] | 15 | –
15 | O=C(NO)c1cnc(N2CCCN(S(=O)(=O)c3ccc4ccccc4c3)CC2)s1 [Example 2, 1-(2-naphthylsulfonyl)-4-(5-hydroxyaminocarbonylthiazol-2-yl)-1,4-diazepane] | 10 | 5.9
16 | O=C(/C=C/c1cnc(N2CCN(S(=O)(=O)c3ccccc3)CC2)s1)NO [Example 4b] | 3 | 0.44
17 | O=C(/C=C/c1cnc(N2CCN(S(=O)(=O)c3ccc([N+](=O)[O-])cc3)CC2)s1)NO [Example 4h] | 5 | 1.63
18 | O=C(CN1CCN(c2ncc(C(=O)NO)s2)CC1)c1ccccc1 [Example 20B, 2-(4-(2-oxo-2-phenylethyl)-piperazin-1-yl)-1,3-thiazole-5-carboxylic acid hydroxyamide] | 4 | –
19 | COc1ccc(S(=O)(=O)N2CCN(c3ncc(/C=C/C(=O)NO)s3)CC2)cc1OC [Example 4c] | 4 | 0.16
20 | O=C(NO)c1cnc(C2CCN(S(=O)(=O)c3ccc(-c4ccccc4)cc3)CC2)s1 [Example 25, 2-[1-(1,1′-biphenyl-4-ylsulfonyl)piperidin-4-yl]-1,3-thiazole-5-carboxylic acid hydroxyamide] | 100 | 13.1
21 | Cc1ccc(S(=O)(=O)N2CCN(c3ncc(/C=C/C(=O)NO)s3)CC2)cc1 [Example 4f] | 2 | 0.55
22 | O=C(/C=C/c1cnc(N2CCN(S(=O)(=O)c3ccc(F)cc3)CC2)s1)NO [Example 4m] | 2.5 | 4.7
23 | CN(C)c1cccc2c(S(=O)(=O)N3CCN(c4ncc(/C=C/C(=O)NO)s4)CC3)cccc12 [Example 4k] | 4 | 318
24 | Cc1ccc(S(=O)(=O)NC2C3CN(c4ncc(C(=O)NO)s4)CC32)cc1 (centres unmarked) [Example 5g, 2-(6-{[(4-methylphenyl)sulfonyl]amino}-3-azabicyclo[3.1.0]hex-3-yl)-1,3-thiazole-5-carboxylic acid hydroxyamide] | 8 | 0.6
25 | O=C(NO)c1cnc(N2CCC(NS(=O)(=O)c3ccc(-c4ccccc4)cc3)CC2)s1 [Example 5b] | 10 | –
26 | O=C(NO)c1cnc(N2CCN(C(=O)c3ccccc3)CC2)s1 [Example 22, 2-(4-benzoyl-piperazin-1-yl)-thiazole-5-carboxylic acid hydroxamide] | 40 | 3.5
27 | O=C(NO)c1cnc(N2CCN(C(=O)Cc3ccccc3)CC2)s1 [Example 23, 2-(4-phenylacetyl-piperazin-1-yl)-thiazole-5-carboxylic acid hydroxamide] | 20 | 31.6
28 | Cc1ccc(S(=O)(=O)N2CCCN(c3ncc(C(=O)NO)s3)C2)cc1 [Example 5h] | 3.5 | 0.67
29 | O=C(NO)c1cnc(N2CCN(Cc3ccccc3)CC2)s1 [Example 17, 2-(4-Benzyl-piperazin-1-yl)-thiazole-5-carboxylic acid hydroxyamide] | 4 | –
